Here are results for 30 molecules from ChEMBL document CHEMBL1132025, “Macrocyclic hexapeptide analogues of the thrombin receptor (PAR-1) activation motif SFLLRN” (Bioorg Med Chem Lett, 1999).

Structures are written as SMILES. Numbered stars: 1 amine (or outer) side, 2 acyl side, 3 side chain; on linkers, the order of the positions; unused ones are H or OH. Bridge positions count the residues as written; N and C are the ends. Square brackets hold non-standard residues; d marks the D form. Peptide text beside a SMILES is read from it. Phe(3-F) = N[C@@H](Cc1cccc(F)c1)C(=O)O; Phe(4-F) = N[C@@H](Cc1ccc(F)cc1)C(=O)O; X1 = O=C(CCCN[*:2])[*:1]; GABA = NCCCC(=O)O; βAla = NCCC(=O)O

The species entered for assay [1] is Homo sapiens. The assay can be described thus: (§1) Agonist activity to activate human platelet aggregation (gel-filtered platelets) at a concentration of 50 uM. Type of assay: functional.
Assay [2] addresses Proteinase-activated receptor 1 (Homo sapiens) (UniProt P25116). The assay can be described thus: In vitro antagonist activity to inhibit human platelet aggregation (gel-filtered platelets) induced by human thrombin at a concentration of 50 uM.
For assay [3], the species on record is Homo sapiens. Described as §1. Type of assay: functional, organism-based.
Assay [4] is filed under the species Homo sapiens. The assay can be described thus: Agonist activity to activate human platelet aggregation (gel-filtered platelets) at a concentration of 100 uM; Not active. Type of assay: functional.

Molecule `CC(C)C[C@@H]1NC(=O)[C@@H](NC(=O)[C@H](Cc2cccc(F)c2)NC(=O)[C@@H](N)CO)CCCCNC(=O)C[C@@H](C(N)=O)NC(=O)[C@H](CCCN=C(N)N)NC1=O` (H-S[Phe(3-F)]KLRD-NH2; lactam 3-6) came in with an Aggregation in the assay listed under Homo sapiens [1] of 12%. In addition, the inhibition in assay [2] was 5%. As for `CC(C)C[C@@H]1NC(=O)[C@@](C)(NC(=O)[C@@H](Cc2ccccc2)NC(=O)CN)CCCCNC(=O)CCCNC(=O)C[C@@H](C(N)=O)NC(=O)[C@H](CCCN=C(N)N)NC1=O`, the inhibition in assay [2] came out at 44%. The same molecule displayed a 50% effective concentration (EC50) in the assay listed under Homo sapiens [3] of 30 µM. Regarding `CC(C)C[C@@H]1NC(=O)[C@@H](NC(=O)[C@H](Cc2cccc(F)c2)NC(=O)CCN)CCCCNC(=O)C[C@@H](C(N)=O)NC(=O)[C@H](Cc2ccccc2)NC1=O` (H-[βAla][Phe(3-F)]KLFD-NH2; lactam 3-6), the concentration for a half-maximal effect (EC50) entry in the assay listed under Homo sapiens [4] is given as “Not Active”. The inhibition in assay [2] turned out to be 24%. In the assay filed under Homo sapiens [1], `CC(C)C[C@@H]1NC(=O)[C@@H](NC(=O)[C@H](Cc2ccccc2)NC(=O)CCN)CCCCNC(=O)C[C@@H](C(N)=O)NC(=O)[C@H](CCCN=C(N)N)NC1=O` (H-[βAla]FKLRD-NH2; lactam 3-6) showed an Aggregation of 7%. In assay [2], this molecule displayed an inhibition of 3%. For the molecule `CC(C)C[C@@H]1NC(=O)[C@@H](NC(=O)[C@H](Cc2ccccc2)NC(=O)CCCN)CCCCNC(=O)C[C@@H](C(N)=O)NC(=O)[C@H](Cc2ccccc2)NC1=O` (H-[GABA]FKLFD-NH2; lactam 3-6), the EC50 result in the assay listed under Homo sapiens [4] was “Not Active”. The molecule also returned an inhibition in assay [2] of 14%. In the assay filed under Homo sapiens [1], `CC(C)C[C@@H]1NC(=O)[C@@H](NC(=O)[C@@H](CCc2ccccc2)NC(=O)[C@@H](N)CO)CCCCNC(=O)C[C@@H](C(N)=O)NC(=O)[C@H](CCCN=C(N)N)NC1=O` returned an Aggregation of 16%. Moreover, the inhibition in assay [2] stood at 5%.

As for `CC(C)C[C@@H]1NC(=O)[C@@H](NC(=O)[C@@H](CCc2ccccc2)NC(=O)[C@@H](N)CO)CCCCNC(=O)C[C@@H](C(N)=O)NC(=O)[C@H](Cc2ccccc2)NC1=O`, the EC50 result in the assay listed under Homo sapiens [4] is given as “Not Active”. This molecule also displayed an inhibition in assay [2] of 2%. In turn, `CC(C)C[C@@H]1NC(=O)[C@@H](NC(=O)[C@H](Cc2ccccc2)NC(=O)CN)CCCCNC(=O)C[C@@H](C(N)=O)NC(=O)[C@H](Cc2ccccc2)NC1=O` (H-GFKLFD-NH2; lactam 3-6) displayed an inhibition in assay [2] of 23%. This molecule also gave a half-maximal effective concentration (EC50) in the assay listed under Homo sapiens [3] of 24 µM. Turning to `CC(C)C[C@@H]1NC(=O)[C@@H](NC(=O)[C@H](Cc2cccc(F)c2)NC(=O)CCCN)CCCCNC(=O)C[C@@H](C(N)=O)NC(=O)[C@H](Cc2ccccc2)NC1=O` (H-[GABA][Phe(3-F)]KLFD-NH2; lactam 3-6), the EC50 entry in the assay listed under Homo sapiens [4] was “Not Active”. The molecule also yielded an inhibition in assay [2] of 27%. Molecule `CC(C)C[C@@H]1NC(=O)[C@@H](NC(=O)[C@@H](CCc2ccccc2)NC(=O)CCN)CCCCNC(=O)C[C@@H](C(N)=O)NC(=O)[C@H](CCCN=C(N)N)NC1=O` showed an Aggregation in the assay listed under Homo sapiens [1] of 7%. The same molecule came in with an inhibition in assay [2] of 1%.

In the case of `CC(C)C[C@@H]1NC(=O)[C@@H](NC(=O)[C@H](Cc2ccc(F)cc2)NC(=O)CN)CCCCNC(=O)C[C@@H](C(N)=O)NC(=O)[C@H](CCCN=C(N)N)NC1=O` (H-G[Phe(4-F)]KLRD-NH2; lactam 3-6), in assay [2], the inhibition turned out to be 14%. Besides, the EC50 in the assay filed under Homo sapiens [3] stood at 60 µM. With `CC(C)C[C@@H]1NC(=O)[C@@H](NC(=O)[C@H](Cc2ccccc2)NC(=O)[C@@H](N)CO)CCCCNC(=O)C[C@@H](C(N)=O)NC(=O)[C@H](Cc2ccccc2)NC1=O` (H-SFKLFD-NH2; lactam 3-6), the EC50 entry in the assay filed under Homo sapiens [4] is “Not Active”. Besides, the inhibition in assay [2] was found to be 12%. Molecule `CC(C)C[C@@H]1NC(=O)[C@@H](NC(=O)[C@H](Cc2ccccc2)NC(=O)[C@@H](N)CO)CCCCNC(=O)C[C@@H](C(N)=O)NC(=O)[C@H](CCCN=C(N)N)NC1=O` (H-SFKLRD-NH2; lactam 3-6) came in with an Aggregation in the assay listed under Homo sapiens [1] of 16%. Also, in assay [2], the inhibition was 13%. In turn, `CC(C)C[C@@H]1NC(=O)[C@@H](NC(=O)[C@H](Cc2ccccc2)NC(=O)[C@H](C)N)CCCCNC(=O)C[C@@H](C(N)=O)NC(=O)[C@H](CCCN=C(N)N)NC1=O` (H-AFKLRD-NH2; lactam 3-6) gave an inhibition in assay [2] of 2%. In the assay filed under Homo sapiens [3], this molecule had a concentration giving a half-maximal response (EC50) of 66 µM. As to `CC(C)C[C@@H]1NC(=O)[C@H](CC(C)C)NC(=O)[C@H](Cc2ccccc2)NC(=O)[C@@H](N)CCCCNC(=O)CCCNC(=O)C[C@@H](C(N)=O)NC(=O)[C@H](CCCN=C(N)N)NC1=O` (H-KFLLRD-NH2; linker 1-6 via X1), in the assay filed under Homo sapiens [1], the Aggregation is recorded as 5%. In assay [2], this molecule yielded an inhibition of 52%. For the molecule `CC(C)C[C@@H]1NC(=O)[C@@H](NC(=O)[C@H](Cc2cccc(F)c2)NC(=O)[C@@H](N)CO)CCCCNC(=O)C[C@@H](C(N)=O)NC(=O)[C@H](Cc2ccccc2)NC1=O` (H-S[Phe(3-F)]KLFD-NH2; lactam 3-6), in the assay filed under Homo sapiens [4], the 50% effective concentration (EC50) entry is “Not Active”. In addition, the inhibition in assay [2] was 23%.

In the assay filed under Homo sapiens [1], `CC(C)C[C@@H]1NC(=O)[C@@H](NC(=O)[C@H](Cc2cccc(F)c2)NC(=O)CCN)CCCCNC(=O)C[C@@H](C(N)=O)NC(=O)[C@H](CCCN=C(N)N)NC1=O` (H-[βAla][Phe(3-F)]KLRD-NH2; lactam 3-6) displayed an Aggregation of 7%. The molecule also showed an inhibition in assay [2] of 3%.

`CC(C)C[C@@H]1NC(=O)[C@H](CC(C)C)NC(=O)[C@H](Cc2ccccc2)NC(=O)[C@@H](N)CCCCNC(=O)C[C@@H](C(N)=O)NC(=O)[C@H](CCCN=C(N)N)NC1=O` (H-KFLLRD-NH2; lactam 1-6): in the assay listed under Homo sapiens [1], the Aggregation is on record as 6%. The molecule further registered an inhibition in assay [2] of 3%.

Regarding `CC(C)C[C@@H]1NC(=O)[C@@H](NC(=O)[C@H](Cc2cccc(F)c2)NC(=O)CCCN)CCCCNC(=O)C[C@@H](C(N)=O)NC(=O)[C@H](CCCN=C(N)N)NC1=O` (H-[GABA][Phe(3-F)]KLRD-NH2; lactam 3-6), the Aggregation in the assay listed under Homo sapiens [1] is 6%. Moreover, the inhibition in assay [2] turned out to be 2%. In turn, `CC(C)C[C@@H]1NC(=O)[C@@H](NC(=O)[C@@H](CCc2ccccc2)NC(=O)CCCN)CCCCNC(=O)C[C@@H](C(N)=O)NC(=O)[C@H](CCCN=C(N)N)NC1=O` returned an Aggregation in the assay filed under Homo sapiens [1] of 8%. In addition, the inhibition in assay [2] came to 2%.

As to `CC(C)C[C@H](NC(=O)[C@H](CC(C)C)NC(=O)[C@H](Cc1ccccc1)NC(=O)[C@@H](N)CO)C(=O)N[C@@H](CCCN=C(N)N)C(=O)N[C@@H](CC(N)=O)C(N)=O`, the EC50 in the assay listed under Homo sapiens [3] was 0.8 µM.

As for `CC(C)C[C@@H]1NC(=O)[C@@H](NC(=O)[C@H](Cc2ccccc2)NC(=O)CN)CCCCNC(=O)C[C@@H](C(N)=O)NC(=O)[C@H](CCCN=C(N)N)NC1=O` (H-GFKLRD-NH2; lactam 3-6), the Aggregation in the assay listed under Homo sapiens [1] came to 15%. This molecule also showed an inhibition in assay [2] of 9%. Regarding `CC(C)C[C@@H]1NC(=O)[C@@H](NC(=O)[C@@H](CCc2ccccc2)NC(=O)CN)CCCCNC(=O)C[C@@H](C(N)=O)NC(=O)[C@H](Cc2ccccc2)NC1=O`, the EC50 result in the assay filed under Homo sapiens [4] was “Not Active”. Further, the inhibition in assay [2] came to 1%.

Molecule `CC(C)C[C@@H]1NC(=O)[C@@H](NC(=O)[C@@H](CCc2ccccc2)NC(=O)CN)CCCCNC(=O)C[C@@H](C(N)=O)NC(=O)[C@H](CCCN=C(N)N)NC1=O` registered an Aggregation in the assay listed under Homo sapiens [1] of 5%. The inhibition in assay [2] was 2%. For `CC(C)C[C@@H]1NC(=O)[C@@H](NC(=O)[C@H](Cc2cccc(F)c2)NC(=O)CN)CCCCNC(=O)C[C@@H](C(N)=O)NC(=O)[C@H](CCCN=C(N)N)NC1=O` (H-G[Phe(3-F)]KLRD-NH2; lactam 3-6) the same measures were 6% and 10%. In assay [2], `CC(C)C[C@@H]1NC(=O)[C@@H](NC(=O)[C@@H](CCc2ccccc2)NC(=O)CCN)CCCCNC(=O)C[C@@H](C(N)=O)NC(=O)[C@H](Cc2ccccc2)NC1=O` gave an inhibition of 16%. Moreover, in the assay listed under Homo sapiens [3], a half-maximal response (EC50) required 43 µM. In turn, `CC(C)C[C@@H]1NC(=O)[C@@H](NC(=O)[C@H](Cc2ccccc2)NC(=O)CCCN)CCCCNC(=O)C[C@@H](C(N)=O)NC(=O)[C@H](CCCN=C(N)N)NC1=O` (H-[GABA]FKLRD-NH2; lactam 3-6) registered an Aggregation in the assay filed under Homo sapiens [1] of 6%. Moreover, the inhibition in assay [2] came out at 6%.

As to `CC(C)C[C@@H]1NC(=O)[C@@H](NC(=O)[C@@H](Cc2ccccc2)NC(=O)CCN)CCCCNC(=O)C[C@@H](C(N)=O)NC(=O)[C@H](Cc2ccccc2)NC1=O`, in the assay filed under Homo sapiens [4], the EC50 entry is “Not Active”. The molecule also showed an inhibition in assay [2] of 11%.

For `CC(C)C[C@@H]1NC(=O)[C@@H](NC(=O)[C@@H](CCc2ccccc2)NC(=O)CCCN)CCCCNC(=O)C[C@@H](C(N)=O)NC(=O)[C@H](Cc2ccccc2)NC1=O`, in assay [2], the inhibition came to 15%. Besides, the EC50 in the assay listed under Homo sapiens [3] is 37 µM.

With `CC(C)C[C@@H]1NC(=O)[C@@H](NC(=O)[C@H](Cc2cccc(F)c2)NC(=O)CN)CCCCNC(=O)C[C@@H](C(N)=O)NC(=O)[C@H](Cc2ccccc2)NC1=O` (H-G[Phe(3-F)]KLFD-NH2; lactam 3-6), the inhibition in assay [2] came out at 11%. In the assay listed under Homo sapiens [3], this molecule registered a concentration for a half-maximal effect (EC50) of 63 µM.
